Series [1] deals with MCF7. Nature of the series: Cytotoxicity against human MCF7 cells assessed as inhibition of cell proliferation after 72 hrs by MTT assay. The conditions noted are these: MCF7, 72 h. It is filed as functional, cell-based. A general note: Tetrazolium assays rely on reduction of a dye to a coloured formazan, in cell work by metabolically active cells.
For series [2], the system named is A549. The experiment in a line: Cytotoxicity against human A549 cells assessed as inhibition of cell proliferation after 72 hrs by MTT assay. The conditions noted are these: A549, 72 h. It is filed as functional, cell-based.
Series [3] relates to HCT-116. Nature of the series: Cytotoxicity against human HCT116 cells assessed as inhibition of cell proliferation after 72 hrs by MTT assay. It is filed as functional, cell-based. The conditions noted are these: HCT-116, 72 h.
Series [4] addresses T1, Histone deacetylase 1 (Homo sapiens, UniProt Q13547). The experiment in a line: Inhibition of HDAC1 (unknown origin) preincubated for 5 mins followed by fluorogenic substrate addition measured after 30 mins by microplate reader analysis.
A short description of series [5]: AUCinfinity_obs in Sprague-Dawley rat at 25 mg/kg, po. It is filed as ADME, organism-based. Also on record: dose 25 mg/kg, time infinity, route oral. The conditions noted are these: in vivo.
Series [6] can be described thus: Elimination half life in Sprague-Dawley rat at 5 mg/kg, iv. It is filed as ADME, organism-based. The settings on record: in vivo, read-out: beta t1/2 (converted).
Series [7] in a line: Elimination half life in Sprague-Dawley rat at 25 mg/kg, po. It is filed as ADME, organism-based. The conditions noted are these: in vivo, read-out: beta t1/2 (converted).
Series [8] can be described thus: AUClast in Sprague-Dawley rat at 25 mg/kg, po. It is filed as ADME, organism-based. Also on record: dose 25 mg/kg, route oral, time 0 - last. The settings on record: in vivo.
A short description of series [9]: Oral bioavailability in Sprague-Dawley rat at 25 mg/kg. It is filed as ADME, organism-based. The conditions noted are these: in vivo.
Series [10] in a line: Tmax in Sprague-Dawley rat at 25 mg/kg, po. It is filed as ADME, organism-based. The settings on record: in vivo.
Series [11] has as its target T1, Histone deacetylase 1. The experiment in a line: Potency index, ratio of MS-275 IC50 to compound IC50 for HDAC1 (unknown origin).
The subject of series [12] is A549. The experiment in a line: Potency index, ratio of MS-275 IC50 to compound IC50 for human A549 cells. It is filed as functional.

T1 sequence (Q13547 whole entry): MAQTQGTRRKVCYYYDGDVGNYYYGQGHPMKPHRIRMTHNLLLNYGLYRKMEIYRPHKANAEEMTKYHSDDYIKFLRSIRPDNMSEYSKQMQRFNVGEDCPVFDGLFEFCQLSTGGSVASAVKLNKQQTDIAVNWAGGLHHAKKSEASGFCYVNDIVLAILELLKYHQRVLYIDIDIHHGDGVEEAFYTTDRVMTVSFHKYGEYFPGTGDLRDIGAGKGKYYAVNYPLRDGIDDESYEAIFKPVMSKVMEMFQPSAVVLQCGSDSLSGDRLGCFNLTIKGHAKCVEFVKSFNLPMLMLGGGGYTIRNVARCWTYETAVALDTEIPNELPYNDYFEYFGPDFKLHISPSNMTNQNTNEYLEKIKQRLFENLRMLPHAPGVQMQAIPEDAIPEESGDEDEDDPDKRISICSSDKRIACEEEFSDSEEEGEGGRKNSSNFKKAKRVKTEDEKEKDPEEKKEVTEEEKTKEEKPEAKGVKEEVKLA

On to `Cc1nc2ccccn2c1/C=C/C(=O)NCCc1ccc(C(=O)Nc2ccccc2N)cc1`, for which the IC50 (in general, the concentration that inhibits the measured activity by half) in [1] stood at 6800 nM; in [2], 1460 nM; in [3], 1960 nM; in [4] it was 178 nM.
For the compound `Cc1nc2ccccn2c1/C=C/C(=O)NCc1ccc(C(=O)Nc2ccccc2N)cc1`, the IC50 in series [1] came to 6220 nM; in series [2], 1300 nM; in series [3], 1430 nM; in series [4] it was 173 nM.
The matching figures for `Nc1ccccc1NC(=O)c1ccc(CNC(=O)/C=C/c2cnc3ccccn23)cc1`: 4130 nM, 832 nM, 2300 nM and 129 nM.
`Nc1ccccc1NC(=O)c1ccc(CNC(=O)OCc2cccnc2)cc1` [ENTINOSTAT]: the IC50 in [1] turned out to be 7880 nM; in series [2], 3130 nM; in [3], 5100 nM.
As to `Nc1ccc(F)cc1NC(=O)c1ccc(CNC(=O)/C=C/c2cnc3cccnn23)cc1`, the IC50 in [1] was 11000 nM; in series [2], 812 nM; in [3], 4290 nM; in series [4], 137 nM.
For `Nc1ccccc1NC(=O)c1ccc(CCNC(=O)/C=C/c2c[nH]c3ccccc23)cc1`, the IC50 in series [1] is 5020 nM; in series [2], 1280 nM; in [3] it was 1570 nM; in series [4], 169 nM.
Turning to `Nc1ccccc1NC(=O)c1ccc(CNC(=O)/C=C/c2cnc3cccnn23)cc1`, the AUC(0-inf) (usually the area under the concentration-time curve extrapolated to infinity) in [5] worked out at 8610 ng·h/mL. For the same compound, the half-life in series [6] was 1.87 h; in [7] it was 8.22 h. The IC50 in series [1] was determined as 2870 nM; in series [2], 723 nM; in series [3], 1260 nM; in series [4], 118 nM. For the same compound, the AUC(0-t) (in general, exposure summed from dosing to a finite time, without extrapolation to infinity) in series [8] turned out to be 6780 ng·h/mL. Further, the bioavailability (in general, the share of a dose that reaches the circulation, judged against a reference dose that is usually intravenous) in series [9] stood at 76%. In addition, the Tmax (as a rule, the time from dosing to the highest level) in [10] turned out to be 1.17 h. The Ratio IC50 in series [11] is 2; in series [12] it was 5.
With `Nc1ccccc1NC(=O)c1ccc(CCNC(=O)/C=C/c2cnc3cccnn23)cc1`, the IC50 in series [1] amounted to 4670 nM; in series [2], 1150 nM; in series [3] it was 2300 nM; in series [4], 154 nM.
For `Nc1cc(F)ccc1NC(=O)c1ccc(CNC(=O)/C=C/c2cnc3cccnn23)cc1` the same measures were 5510 nM, 791 nM, 2260 nM and 131 nM.
The matching figures for `Nc1ccccc1NC(=O)c1ccc(CCNC(=O)/C=C/c2cnc3ccccn23)cc1`: 9440 nM, 1470 nM, 4500 nM and 217 nM.
On to `Nc1ccccc1NC(=O)c1ccc(CNC(=O)/C=C/c2c[nH]c3ccccc23)cc1`, for which the IC50 amounted to 2920 nM in [1], 649 nM in [2], 1220 nM in series [3] and 120 nM in series [4]. In addition, the Ratio IC50 in series [11] stood at 2.

The record behind these values is ChEMBL document CHEMBL3593215, “Design, synthesis and antiproliferative activities of novel benzamides derivatives as HDAC inhibitors” (Eur J Med Chem, 2015).
